Reference: patent publication US20260209208A1, “PHENYL-PYRAZOLE CARBOXAMIDE COMPOUNDS” (Acrivon Therapeutics, Inc., priority 2022, published 2026)

Assays:
Myt1 Kinase = target: T1, Myt1 Kinase (Homo sapiens, UniProt Q99640); assay: AlphaLISA SureFire Ultra Human Phospho-CDK1 (Thr14) target engagement assay in DAOY cells; format: cell-based; details: 4 h incubation, Cdk1 phosphorylated on threonine 14, read-out: TE Myt1 Kinase (AlphaLISA)
T1 construct: endogenous in cells; host or cells: DAOY medulloblastoma cells (ATCC)
T1 sequence (Q99640 1-499): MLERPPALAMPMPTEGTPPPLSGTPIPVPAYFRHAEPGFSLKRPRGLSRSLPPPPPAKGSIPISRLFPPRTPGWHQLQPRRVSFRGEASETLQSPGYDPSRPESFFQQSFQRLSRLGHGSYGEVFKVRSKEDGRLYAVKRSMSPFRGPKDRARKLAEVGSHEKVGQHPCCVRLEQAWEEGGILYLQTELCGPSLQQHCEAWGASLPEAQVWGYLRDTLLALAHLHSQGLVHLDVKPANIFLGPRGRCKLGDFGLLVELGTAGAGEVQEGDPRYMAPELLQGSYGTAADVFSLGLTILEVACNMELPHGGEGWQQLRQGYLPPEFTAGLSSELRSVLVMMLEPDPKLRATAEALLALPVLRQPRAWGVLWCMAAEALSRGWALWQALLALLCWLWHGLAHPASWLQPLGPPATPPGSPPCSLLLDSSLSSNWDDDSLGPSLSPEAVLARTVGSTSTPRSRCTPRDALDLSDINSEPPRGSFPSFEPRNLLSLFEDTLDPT
Method: The following cellular assay was used to determine the extent to which the compounds disclosed herein inhibit phosphorylation of CDK1 at Thr 14.
(§1) DAOY medulloblastoma cell line (ATCC) was cultured in Minimum Essential Medium Eagle supplemented with 10% fetal calf serum (Sigma), 1% Penicillin-Streptomycin and 10 mM HEPES buffer (HyClone). Cell cultures were kept in a humidified incubator at 37° C. and 5% CO2. Cells were routinely tested for Mycoplasma contamination.
For target engagement assessment, quantification of Cdk1 phosphorylated on threonine 14 was detected using the AlphaLISA® SureFire® Ultra™ Human Phospho-CDK1 (Thr14) assay (Perkin Elmer). DAOY cells were seeded into tissue culture 96-well plates (VWR) to a density of 10,000 cells per well. Twenty-four hours post-seeding cells were incubated for 4 h with test compounds at concentrations ranging from 7 to 5000 nM. Cells were washed with PBS and lysed in 50 μl AlphaLISA® lysis buffer before freezing at −80° C. Ten μl of the lysate was transferred to 384 well plates and incubated with AlphaLISA® donor and acceptor beads according to the manufacturer's instructions. Dose response curves and EC50 values were calculated and visualized using GraphPad Prism version 9.

DAOY cells = assay: Cell Titer Glo viability assay; format: cell-based; details: Homo sapiens, 144 hours, Cell Titer Glo 2.0
Method: as §1
DAOY cells were seeded at a density of 250 cells per well in tissue culture 384 well plates (Corning Costar). After overnight incubation, cells were incubated with test compounds at concentrations ranging from 0.17 to 10,000 nM. Viability compared to untreated control was assessed at 144 hours using Cell Titer Glo® 2.0 Viability Assay (Promega).

[1] = Oral bioavailability study in mice; format: in vivo; details: female CD-1 mice, single IV bolus 1 mg/kg vs oral gavage 3 mg/kg, dose normalized AUC0-∞
Method: We compared the oral bioavailability of Compound 75:
(Compound A), which has a thiazolyl moiety in place of the furanyl moiety in Compound 75. Female CD-1 mice treated with a single intravenous bolus (IV; 1 mg/kg) or oral gavage (PO; 3 mg/kg) of one of the compounds. The percent bioavailability (% F) was calculated by dividing the dose normalized area under the plasma concentration curve (AUC0-∞) by the dose normalized IV plasma AUC0-∞.

[2] = target: T2, recombinant human PMYT-1 (Myt1 kinase) (Homo sapiens, UniProt Q99640); assay: LanthaScreen Europium (Eu) Kinase Binding Assay for Myt1 kinase; details: TR-FRET tracer 178 displacement, GST-tagged full length PMYT-1, 60 min, room temperature; mean IC50; read-out: LANTHA Kinase Binding for PMyt1
T2 construct: full length PMYT-1 was expressed by baculovirus in insect cells using a N-terminal GST tag; purchased Invitrogen A30984; host or cells: insect cells (baculovirus)
T2 sequence (Q99640 1-499): T1 sequence (Q99640 1-499)
Source text: We used a LanthaScreen Europium (Eu) Kinase Binding Assay to determine the binding of provided compounds to Myt1 kinase. The assay utilizes an Alexa Fluor 647-labeled ATP competitive kinase tracer that binds to the ATP binding site of a GST-tagged Myt1 kinase, while a europium (Eu) labeled antibody binds to the GST tag. The proximity of fluorescently labeled kinase tracer and europium (Eu) donor fluorophore antibody leads to fluorescence resonance energy transfer (FRET) to the fluorescence label (acceptor) upon excitation of the Eu (donor). Displacement of tracer from the ATP-binding site by a test compound disturbs the proximity between both labels thus lowering the FRET.
This time resolved-FRET binding assay was performed in white 384-well low volume plates (Greiner, cat #784075), at room temperature in kinase buffer A (KBA; Invitrogen cat # PV3189), consisting of 50 mM HEPES-NaOH (pH 7.5), 0.01% Brij-35, 10 mM MgCl2, and 1 mM EGTA. 5 μl of compound (diluted in reaction buffer, to 1% DMSO) were added to various wells in the plate, followed by 5 μl each of recombinant human PMYT-1 (full length PMYT-1 was expressed by baculovirus in insect cells using a N-terminal GST tag (MW: 80.8 kDa) (Invitrogen cat #A30984) and LanthaScreen Eu-anti-GST antibody (Invitrogen, cat #PV5594). After this, 5 μl of kinase tracer 178 (Invitrogen, cat #PV5593) was added to the plate and the plate was incubated for 60 minutes at room temperature. The final assay conditions in each well were: 3 nM tracer 178, 2.5 nM PMYT-1 and 1 nM Eu-labeled antibody in total assay volume of 15 μl. An Envision 2104 (Perkin-Elmer) Plate Reader with the following time-resolve fluorescence setting was used for performing LanthaScreen kinase binding assay. • Excitation 320 nm (30 nm bandpass) • Kinase Tracer Emission 665 nm (10 nm bandpass) • LanthaScreen Eu-anti-Tag Antibody Emission 615 nm (10 nm bandpass) • Dichroic Mirror Instrument dependent • Delay Time 100 μs • Integration Time 200 μs
To calculate the emission ratio, the acceptor/tracer emission ([…]) was divided by the antibody/donor emission ([…]) and the average of duplicate measurement was used for calculations. Data plotting, analysis of binding, and curve fitting was done using Excel add-in XLfit version 5.5.0.5 (IDBS, Guildford, United Kingdom).

Row | SMILES | EC50 (Myt1 Kinase) [nM] | Bioavailability (% F) [1] [% F] | IC50 [2] [nM] | EC50 (DAOY cells) [nM]
1 | Cc1ccc(O)c(C)c1-n1nc(-c2nccs2)c(C(N)=O)c1N [Compound 122] | ≤ 250 | 32 | ≤ 10 | ≤ 500
2 | CC(C)=Cc1coc(-c2nn(-c3c(C)ccc(O)c3C)c(N)c2C(N)=O)c1 [Compound 108, 5-amino-1-(3-hydroxy-2,6-xylyl)-3-[4-(2-methyl-1-propenyl)-2-furyl]-4-pyrazolecarboxamide] | ≤ 250 | – | ≤ 10 | 500 to 1000
3 | Cc1coc(-c2nn(-c3c(C)ccc(O)c3C)c(N)c2C(N)=O)c1 [Compound 90, 5-amino-1-(3-hydroxy-2,6-xylyl)-3-(4-methyl-2-furyl)-4-pyrazolecarboxamide] | ≤ 250 | – | ≤ 10 | ≤ 500
4 | Cc1ccc(O)c(C)c1-n1nc(-c2ccccc2)c(C(N)=O)c1N [Compound 9, 5-amino-1-(3-hydroxy-2,6-dimethylphenyl)-3-phenyl-1H-pyrazole-4-carboxamide; trifluoroacetic acid] | ≤ 250 | – | 10 to 100 | > 1000
5 | C/C=C/c1coc(-c2nn(-c3c(C)ccc(O)c3C)c(N)c2C(N)=O)c1 [Compound 112, 3-{4-[(E)-1-propenyl]-2-furyl}-5-amino-1-(3-hydroxy-2,6-xylyl)-4-pyrazolecarboxamide] | ≤ 250 | – | ≤ 10 | 500 to 1000
6 | Cc1ccc(O)c(C)c1-n1nc(-c2ncco2)c(C(N)=O)c1N [Compound 123] | ≤ 250 | – | ≤ 10 | 500 to 1000
7 | Cc1ccc(O)c(C)c1-n1nc(-c2cc(Br)co2)c(C(N)=O)c1N [Compound 79, 5-amino-3-(4-bromo-2-furyl)-1-(3-hydroxy-2,6-xylyl)-4-pyrazolecarboxamide] | ≤ 250 | – | ≤ 10 | ≤ 500
8 | Cc1ccc(O)c(C)c1-n1nc(-c2cc(C3CC3)co2)c(C(N)=O)c1N [Compound 111, 5-amino-3-(4-cyclopropyl-2-furyl)-1-(3-hydroxy-2,6-xylyl)-4-pyrazolecarboxamide] | ≤ 250 | – | 10 to 100 | 500 to 1000

Continued, in another order:

Row | EC50 (Myt1 Kinase) [nM] | Bioavailability (% F) [1] [% F] | IC50 [2] [nM] | SMILES | EC50 (DAOY cells) [nM]
9 | ≤ 250 | – | 10 to 100 | Cc1ccc(O)c(C)c1-n1nc(-c2ccc(C#N)o2)c(C(N)=O)c1N [Compound 101, 5-amino-3-(5-cyano-2-furyl)-1-(3-hydroxy-2,6-xylyl)-4-pyrazolecarboxamide] | > 1000
10 | ≤ 250 | – | ≤ 10 | Cc1ccc(O)c(C)c1-n1nc(-c2cc(-c3ccccn3)co2)c(C(N)=O)c1N [Compound 98, 5-amino-1-(3-hydroxy-2,6-xylyl)-3-[4-(2-pyridyl)-2-furyl]-4-pyrazolecarboxamide] | ≤ 500
11 | ≤ 250 | – | ≤ 10 | Cc1ccc(O)c(C)c1-n1nc(-c2cc(-c3ccncc3)co2)c(C(N)=O)c1N [Compound 95, 5-amino-1-(3-hydroxy-2,6-xylyl)-3-[4-(4-pyridyl)-2-furyl]-4-pyrazolecarboxamide] | ≤ 500
12 | ≤ 250 | – | ≤ 10 | Cc1ccc(O)c(C)c1-n1nc(-c2ccc(-c3cccnc3)o2)c(C(N)=O)c1N [Compound 86, 5-amino-1-(3-hydroxy-2,6-xylyl)-3-[5-(3-pyridyl)-2-furyl]-4-pyrazolecarboxamide] | 500 to 1000
13 | ≤ 250 | – | ≤ 10 | Cc1ccc(O)c(C)c1-n1nc(-c2ccc(-c3ccncc3)o2)c(C(N)=O)c1N [Compound 99, 5-amino-1-(3-hydroxy-2,6-xylyl)-3-[5-(4-pyridyl)-2-furyl]-4-pyrazolecarboxamide] | > 1000
14 | ≤ 250 | 64 | ≤ 10 | Cc1ccc(O)c(C)c1-n1nc(-c2ccco2)c(C(N)=O)c1N [Compound 75, 5-amino-3-(2-furyl)-1-(3-hydroxy-2,6-xylyl)-4-pyrazolecarboxamide] | ≤ 500
15 | ≤ 250 | – | ≤ 10 | Cc1ccc(-c2nn(-c3c(C)ccc(O)c3C)c(N)c2C(N)=O)o1 [Compound 81, 5-amino-1-(3-hydroxy-2,6-xylyl)-3-(5-methyl-2-furyl)-4-pyrazolecarboxamide] | 500 to 1000
